Here are results for 2 compounds from publication PMC10790750, “A widespread methylotroph acyl-homoserine lactone synthase produces a new quorum sensing signal that regulates swarming in Methylobacterium fujisawaense” (mBio, 2023).

Holding throughout (assay type): cell-based
In one experiment the target is T1, MmaR (MmaRDSM5686) (Methylobacterium fujisawaense, UniProt A0ABR6DCX3).
T1 construct: gene GGQ91_003337; mmaR inserted in genome of Methylorubrum extorquens AWP227 (mlaR/mlaI deleted) under native mlaR promoter; reporter strain AWP370 with mmaI promoter-mScarlet
T1 sequence (A0ABR6DCX3 entry or part of it): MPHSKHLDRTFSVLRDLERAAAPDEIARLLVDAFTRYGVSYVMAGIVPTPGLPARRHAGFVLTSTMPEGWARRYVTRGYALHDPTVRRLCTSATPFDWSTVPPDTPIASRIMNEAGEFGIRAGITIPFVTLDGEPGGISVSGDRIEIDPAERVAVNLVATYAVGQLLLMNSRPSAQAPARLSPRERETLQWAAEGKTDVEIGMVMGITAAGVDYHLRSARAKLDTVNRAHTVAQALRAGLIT
The experiment in a line: mScarlet reporter activation in M. extorquens AWP370.

For the next experiment, the target named is T2, MmaI (Ga0373204_3345) (Methylobacterium fujisawaense, UniProt A0ABR6DCY1).
T2 construct: gene GGQ91_003338; native expression in DSM5686; deletion mutant as control
T2 sequence (A0ABR6DCY1 entry or part of it): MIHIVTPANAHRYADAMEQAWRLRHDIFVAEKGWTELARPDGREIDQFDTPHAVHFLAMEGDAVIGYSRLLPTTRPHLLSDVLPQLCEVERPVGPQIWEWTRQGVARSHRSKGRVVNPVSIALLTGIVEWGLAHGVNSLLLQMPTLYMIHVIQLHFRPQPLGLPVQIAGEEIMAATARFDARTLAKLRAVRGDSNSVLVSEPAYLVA
The experiment in a line: LC-MS/MS, NMR of culture extract; deletion mutant control. To be noted: native strain grown on methanol.

Another experiment concerns the target T3, Mrad2831_5763 (MmaI) (Methylobacterium radiotolerans, UniProt B1M2Q9).
T3 construct: heterologously expressed
T3 sequence (B1M2Q9 1-207): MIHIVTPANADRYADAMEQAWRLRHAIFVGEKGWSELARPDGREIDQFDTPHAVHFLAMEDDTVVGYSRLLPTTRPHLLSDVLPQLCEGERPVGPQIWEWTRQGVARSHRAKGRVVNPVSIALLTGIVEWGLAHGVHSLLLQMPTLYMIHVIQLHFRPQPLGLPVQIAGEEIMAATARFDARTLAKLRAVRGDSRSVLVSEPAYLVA
Description: LC-MS/MS of culture extract after heterologous expression. The settings on record: product identified by m/z, retention time and fragmentation.

SMILES strings stand for the structures. pEC50: −log10 of the molar value. Like-named read-outs stand apart in the source and are kept apart here.

One may read the pEC50 as the EC50 on a negative log10 scale, so that one unit is a factor of ten. A low value points to a high EC50. In turn, `CCCCCCCCCC(O)CC(=O)N[C@H]1CCOC1=O` (stereo partly shown) [3-OH-C12-HSL] gave a pEC50 at MmaR (MmaRDSM5686) of 8.77.
For the compound `CCCCCC/C=C\C[C@@H](O)CC(=O)NC1CCOC1=O` (stereo partly drawn) [3R-OH-5Z-C12:1-HSL, N-(3R-hydroxy-5-cis-dodecenoyl)-L-homoserine lactone], the “LC-MS/MS, NMR of culture extract; deletion mutant control” value on MmaI (Ga0373204_3345) was “this feature was not present in a culture of an in-frame, unmarked deletion mutant”. On MmaR (MmaRDSM5686) (purified natural signal added, mmaI promoter-mScarlet reporter, agonist), this compound had a pEC50 of 9.70. Besides, at Mrad2831_5763 (MmaI), the “LC-MS/MS of culture extract after heterologous expression” value is “we observed a feature with the same m/z, retention time, and fragmentation pattern”.
